{
  "source": "patent US5538876A",
  "about": "“Stabilization of carboxyl esterase” (Gist-brocades, N.V., priority 1989, dated 1996)",
  "data": [
    {"target": "carboxyl esterase (Bacillus subtilis, UniProt Q59248)", "test": "Inactivation of carboxyl esterase by compounds", "format": "biochemical, Bacillus subtilis Thai 1-8", "conditions": "reaction conditions, commercially interesting concentrations", "method": "The esterase as such is stable at pH=9 and T=40° C. (with and without Tween 80 (TM)) for several hours.", "values": [
      {"smiles": "Oc1ccc2ccccc2c1", "note": "[2-naphthol]", "inactivation of carboxyl esterase by the compound (in words)": "inactivate the enzyme"},
      {"smiles": "O=C(O)COc1ccc2ccccc2c1", "note": "[2-naphthoxy acetic acid]", "inactivation of carboxyl esterase by the compound (in words)": "inactivate the enzyme"},
      {"smiles": "CC(Oc1ccc(Oc2ccc(Cl)cc2Cl)cc1)C(=O)O", "note": "(stereo not drawn) [diclofop]", "inactivation of carboxyl esterase by the compound (in words)": "will inactivate the enzyme"},
      {"smiles": "CC(C)Cc1ccc(C(C)C(=O)O)cc1", "note": "(stereo not drawn) [ibuprofen, reference compound]", "inactivation of carboxyl esterase by the compound (in words)": "inactivate the enzyme"},
      {"smiles": "Oc1ccccc1", "note": "[phenol]", "inactivation of carboxyl esterase by the compound (in words)": "inactivate the enzyme"}
    ]},
    {"target": "T1, carboxyl esterase (Bacillus subtilis, UniProt Q59248)", "T1 construct": "document's preparation is from B. subtilis 1-85/pNAPT-7 (cloned Thai I-8 gene)", "T1 sequence (Q59248 1-300)": "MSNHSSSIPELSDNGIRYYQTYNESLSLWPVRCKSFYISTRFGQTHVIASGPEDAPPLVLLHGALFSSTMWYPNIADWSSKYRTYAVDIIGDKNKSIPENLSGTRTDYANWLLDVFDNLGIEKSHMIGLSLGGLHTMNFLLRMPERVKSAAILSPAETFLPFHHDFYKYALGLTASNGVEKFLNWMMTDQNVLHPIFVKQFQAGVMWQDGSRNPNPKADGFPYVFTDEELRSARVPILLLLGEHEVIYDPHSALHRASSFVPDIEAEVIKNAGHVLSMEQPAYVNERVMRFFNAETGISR", "test": "Effect of chemical modifier on carboxyl esterase stability", "format": "biochemical", "conditions": "used as chemical group to modify the enzyme", "from_the_text": "In this respect it is to be noticed that only small and not too hydrophilic chemical groups can be used to modify the enzyme.", "values": [
      {"smiles": "O=Cc1ccccc1", "note": "[Benzaldehyde]", "effect on enzyme stability (in words)": "does not have a positive effect on enzyme stability"}
    ]}
  ]
}
